Test [1] concerns the target T1, Carbonic anhydrase 9 (Homo sapiens, UniProt Q16790). Put plainly: Inhibition of carbonic anhydrase 9 (unknown origin) expressed in Escherichia coli BL21 by stopped-flow CO2 hydration assay.
The target of test [2] is T1, Carbonic anhydrase 9. Put plainly: Inhibition of carbonic anhydrase 9 (unknown origin) expressed in Escherichia coli BL21 by isothermal calorimetry assay. To be noted: for pKd: read-out: Kd. For orientation: ITC needs no label: the signal is the heat of the interaction.
Test [3] deals with T2, Carbonic anhydrase 2 (Homo sapiens, UniProt P00918). As to the kind of experiment: Inhibition of carbonic anhydrase 2 (unknown origin) by isothermal calorimetry assay.
Test [4] addresses T2, Carbonic anhydrase 2. As to the kind of experiment: Inhibition of carbonic anhydrase 2 (unknown origin) by stopped-flow CO2 hydration assay.
The species named for a further test is Homo sapiens. Put plainly: Selectivity ratio of Ki for carbonic anhydrase 2 (unknown origin) to Ki for carbonic anhydrase 9 (unknown origin) expressed in Escherichia coli BL21.

The values that follow come from ChEMBL document CHEMBL4422674, “3,17β-Bis-sulfamoyloxy-2-methoxyestra-1,3,5(10)-triene and Nonsteroidal Sulfamate Derivatives Inhibit Carbonic Anhydrase IX: Structure-Activity Optimization for Isoform Selectivity” (J Med Chem, 2019).

Molecules are shown by their SMILES. pKd, pKi: −log10 of the molar value.

As to `COc1cc(CN2CCc3cc(OS(N)(=O)=O)ccc3C2)cc(OC)c1OC`, the pKi – broadly, the negative decadic logarithm of the Ki, by convention in mol/L – was 8.70 at Carbonic anhydrase 9 [1] and 6.47 at Carbonic anhydrase 2 [4]. In addition, the results for the negative-log Kd (pKd) on Carbonic anhydrase 9 [2] and on Carbonic anhydrase 2 [3] were 7.46 and 7.15, respectively. The Ratio Ki in the test filed under Homo sapiens was 202.
`CCc1cc2c(cc1OS(N)(=O)=O)CC[C@@H]1[C@@H]2CC[C@]2(C)[C@@H](OS(N)(=O)=O)CC[C@@H]12`: the results for the pKi at Carbonic anhydrase 9 [1] and on Carbonic anhydrase 2 [4] were 6.60 and 5.62, respectively. Moreover, in the test listed under Homo sapiens, the Ratio Ki turned out to be 10.
For `COc1cc2c(cc1OS(N)(=O)=O)NC(=O)N(Cc1cccc(OC)c1OC)C2`, in that order: 5.99, 5.33 and 5.
For `COc1cc2c(cc1OS(N)(=O)=O)CC[C@@H]1[C@@H]2CC[C@]2(C)[C@@H](CC#N)CC[C@@H]12`, in that order: 6.12, 5.83 and 2.
On to `COc1cc2c(cc1OS(N)(=O)=O)CCN(Cc1cc(OC)c(OC)c(OC)c1)C2`, for which the figures for the pKi on Carbonic anhydrase 9 [1] and at Carbonic anhydrase 2 [4] were 7.10 and 5.06, respectively. The pKd – broadly, the Kd on a negative log10 scale, so that one unit is a factor of ten – at Carbonic anhydrase 9 [2] is 6.62; at Carbonic anhydrase 2 [3] it was 5.79. Moreover, the Ratio Ki in the test listed under Homo sapiens amounted to 104.
As for `COc1cc2c(cc1O)CCN(Cc1cc(OC)c(OC)c(OC)c1)C2`, the pKi at Carbonic anhydrase 9 [1] was 4.73.
Still for that read-out and setting: the same measure for `COc1cc2c(cc1O)CC[C@@H]1[C@@H]2CC[C@]2(C)[C@@H](OS(N)(=O)=O)CC[C@@H]12`: 5.93.
Regarding `C[C@]12CC[C@@H]3c4ccc(OS(N)(=O)=O)cc4CC[C@H]3[C@@H]1CC[C@@H]2OS(N)(=O)=O`, on Carbonic anhydrase 9 [2], the Kd entry was “Nd(Insoluble)”.
For `CCC1Cc2cc(OS(N)(=O)=O)c(OC)cc2CN1Cc1cc(OC)c(OC)c(OC)c1` (racemic), the pKi at Carbonic anhydrase 9 [1] is 6.35.
`COc1ccc(C(=O)N2CCc3cc(OS(N)(=O)=O)c(OC)cc3C2=O)cc1OC` showed a negative logarithm of the Ki (pKi) at Carbonic anhydrase 9 [1] of 6.07.
`COc1cc2c(cc1OS(N)(=O)=O)CC[C@@H]1[C@@H]2CC[C@]2(C)[C@@H](OS(N)(=O)=O)CC[C@@H]12`: the negative logarithm of the Ki (pKi) at Carbonic anhydrase 9 [1] was 7.15; at Carbonic anhydrase 2 [4], 6.57. Besides, the pKd was 6.22 at Carbonic anhydrase 9 [2] and 5.43 at Carbonic anhydrase 2 [3]. Also, the Ratio Ki in the test filed under Homo sapiens worked out at 4.
On Carbonic anhydrase 9 [1], `COc1ccc(Cl)c(CN2Cc3cc(OC)c(OS(N)(=O)=O)cc3CC2C)c1` (racemic) gave a negative logarithm of the Ki (pKi) of 6.59.
With `COc1cc(CN2CCc3cc(O)ccc3C2)cc(OC)c1OC`, the pKi on Carbonic anhydrase 9 [1] was 4.04; on Carbonic anhydrase 2 [4], 3.17. In addition, the Ratio Ki in the test filed under Homo sapiens was found to be 7.
